Test results reported in ChEMBL document CHEMBL4402555, “Impact of the structure-activity relationship of AHL analogues on quorum sensing in Gram-negative bacteria” (Bioorg Med Chem, 2020).
Values belong to the compound of their own block, whether it stands above or below them.

How the values were obtained:
[1] = target: T1, Transcriptional activator protein LasR (Pseudomonas aeruginosa (strain ATCC 15692 / PAO1 / 1C / PRS 101 / LMG12228), UniProt P25084); assay: Inhibition of LasR in Pseudomonas aeruginosa PAO-JP2 harboring plasI-LVAgfp incubated for 6 hrs by fluorescence method
T1 sequence (P25084 whole entry): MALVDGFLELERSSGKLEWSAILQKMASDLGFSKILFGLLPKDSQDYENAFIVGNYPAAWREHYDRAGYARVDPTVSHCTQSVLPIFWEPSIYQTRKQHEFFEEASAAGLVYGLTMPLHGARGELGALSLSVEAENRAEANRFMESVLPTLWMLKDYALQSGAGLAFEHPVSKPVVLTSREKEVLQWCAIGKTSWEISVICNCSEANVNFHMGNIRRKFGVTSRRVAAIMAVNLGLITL

[2] = Inhibition of quorum sensing system in Pseudomonas aeruginosa transfected with lasB-lacZ in presence of PA1
[3] = Inhibition of LasR in Escherichia coli JLD271 harboring pSC11/pJN105L using CPRG as substrate incubated for 4 hrs by Miller assay method
[4] = target: T2, Transcriptional activator protein LuxR (Aliivibrio fischeri, UniProt P12746); assay: Agonist activity at Aliivibrio fischeri LuxR by luminescence method
T2 sequence (P12746 whole entry): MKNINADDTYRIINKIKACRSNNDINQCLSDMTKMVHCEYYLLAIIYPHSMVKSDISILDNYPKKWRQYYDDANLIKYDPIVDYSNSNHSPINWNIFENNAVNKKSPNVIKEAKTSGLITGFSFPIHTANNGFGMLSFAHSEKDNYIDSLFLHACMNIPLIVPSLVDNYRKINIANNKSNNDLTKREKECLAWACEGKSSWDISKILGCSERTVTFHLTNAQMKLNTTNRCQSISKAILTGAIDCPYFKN

[5] = target: T3, Transcriptional activator protein LasR (Pseudomonas aeruginosa (strain ATCC 15692 / PAO1 / 1C / PRS 101 / LMG12228)) (UniProt P25084); assay: Antagonist activity at LasR in Pseudomonas aeruginosa PAO-JP2 harboring plasI-LVAgfp assessed as inhibition of GFP expression by measuring reduction in fluorescence intensity at 100 uM incubated for 6 hrs in presence of AI1 by fluorescence based competitive assay relative to control
T3 sequence (whole entry): T1 sequence (P25084 whole entry)

[6] = target: T1, Transcriptional activator protein LasR; assay: Antagonist activity at Pseudomonas aeruginosa LasR transfected with lasB-GFP by […] method
[7] = target: T2, Transcriptional activator protein LuxR; assay: Antagonist activity at Aliivibrio fischeri ES114 LuxR after 4 to 8 hrs by luminescence method
[8] = target: T3, Transcriptional activator protein LasR (Pseudomonas aeruginosa (strain ATCC 15692 / PAO1 / 1C / PRS 101 / LMG12228)); assay: Antagonist activity at LasR in Pseudomonas aeruginosa PAO1 assessed as inhibition of pyocyanin production at 50 uM incubated for 13 hrs relative to control
[9] = target: T2, Transcriptional activator protein LuxR; assay: Antagonist activity at Aliivibrio fischeri LuxR by luminescence method
[10] = Activation of LasR in Escherichia coli JLD271 harboring pSC11/pJN105L using CPRG as substrate incubated for 4 hrs by Miller assay method
[11] = target: T1, Transcriptional activator protein LasR; assay: Activation of LasR in Pseudomonas aeruginosa PAO-JP2 harboring plasI-LVAgfp incubated for 6 hrs by fluorescence method
[12] = Inhibition of quorum sensing system in Pseudomonas aeruginosa

SMILES: CCCCCCCCCC(=O)NC1CCCC1 [N-CYCLOPENTYLDECANAMIDE]
IC50 [1]: > 50 µM | IC50 [2]: 80 µM

SMILES: O=C(CC(=O)N[C@H]1CCOC1=O)CC1CCCCC1
EC50 [4]: 1100 nM

SMILES: CCCCCCCCCC(=O)CC(=O)CCN[C@H]1CCC[C@@H]1O
inhibition [5]: 70%

SMILES: O=C(Cc1ccc([N+](=O)[O-])cc1)N[C@H]1CCOC1=O
IC50 [7]: 1000 nM

SMILES: CCCCCCCCCC(=O)CC(=O)CCNC1CCCCC1=O (stereo not drawn)
inhibition [5]: 35%

SMILES: O=C1OCCC1NS(=O)(=O)Cc1ccccc1 (stereo not drawn)
IC50 [9]: 40 µM

SMILES: Cc1ccc(CC(=O)CC(=O)NC2CCOC2=O)cc1 (stereo not drawn)
IC50 [9]: 4 µM

SMILES: CCCC(=O)CS(=O)(=O)NC1CCOC1=O (stereo not drawn)
IC50 [9]: 40 µM

SMILES: O=C(CCCC1CCCCC1)NC1CCOC1=O (stereo not drawn)
EC50 [4]: > 6000 nM

SMILES: CCCCS(=O)(=O)NC1CCOC1=O (stereo not drawn)
IC50 [9]: 12 µM

SMILES: O=C(Cc1ccc(-c2ccccc2)cc1)N[C@H]1CCOC1=O
IC50 [7]: 1100 nM

SMILES: CCC(=O)CC(=O)Nc1cccc(OC)c1
IC50 [1]: > 200 µM | IC50 [3]: 4.7 µM | EC50 [10]: > 100000 nM

SMILES: N#CSCC(=O)CC(=O)N[C@H]1CCOC1=O
EC50 [11]: 2.6 µM | EC50 [10]: 17 nM

SMILES: CCCCCCCCS(=O)(=O)NC1CCOC1=O (stereo not drawn)
IC50 [9]: 10 µM

SMILES: O=C(COc1cccc(Br)c1)N[C@H]1CCSC1=O
EC50 [11]: 4.2 µM | EC50 [10]: 13 nM

SMILES: CCC(=O)CC(=O)NC1CCCCC1=O (stereo not drawn)
IC50 [1]: > 100 µM | EC50 [11]: > 200 µM | EC50 [10]: 240 nM

Results, then the compound that gave them:

IC50 [3]: 2.8 µM
SMILES: O=C(CC(=O)N[C@H]1CCOC1=O)Cc1ccccc1

IC50 [6]: 50 µM
SMILES: CCCCCCC[S+]([O-])CC(=O)NC1CCOC1=O (stereo not drawn)

IC50 [6]: 6 µM
SMILES: CCCCCCCSCC(=O)N[C@H]1CCOC1=O

inhibition [8]: 74%
SMILES: CCCCCCCCC(=O)CC(=O)Nc1cccc(OC)c1

IC50 [7]: 4100 nM
SMILES: O=C(Cc1ccc(Cl)cc1)N[C@H]1CCOC1=O

IC50 [9]: 2 to 3 µM
SMILES: O=C(COCc1ccccc1)NC1CCOC1=O (stereo not drawn)

IC50 [7]: 3700 nM | IC50 [3]: 3.5 µM
SMILES: O=C(Cc1ccc(Br)cc1)N[C@H]1CCOC1=O

IC50 [9]: 9 µM
SMILES: CCCCCCCS(=O)(=O)NC1CCOC1=O (stereo not drawn)

IC50 [9]: 6.5 µM
SMILES: CCCCCCS(=O)(=O)NC1CCOC1=O (stereo not drawn)

IC50 [7]: 900 nM
SMILES: O=C(Cc1ccc(I)cc1)N[C@H]1CCOC1=O

IC50 [9]: 2 µM
SMILES: O=C(CC(=O)NC1CCOC1=O)Cc1ccccc1 (stereo not drawn)

IC50 [12]: 5.5 µM
SMILES: CCCCCCCCC(=O)CC(=O)Nc1ccccc1

IC50 [6]: 50 µM
SMILES: Cc1ccc(SCC(=O)N[C@H]2CCOC2=O)cc1

IC50 [9]: 2 to 3 µM
SMILES: O=C(CSCc1ccccc1)NC1CCOC1=O (stereo not drawn)
